Assay results as given in patent US10584115B2, “Substituted pyridine and pyrazine BMI-1 inhibitors” (PTC Therapeutics, Inc., priority 2013, dated 2020).

Experiments:
Bmi-1 protein = experiment: Sandwich ELISA Assay (Bmi-1 protein level in HT-1080 cells after compound treatment); format: cell-based; conditions: Table 1, Bmi-1 sandwich ELISA, read-out: ELISA EC50 value for Bmi-1 protein
Outline: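 Sandwich ELISA quantified Bmi-1 protein against recombinant standard (125–8000 pg/mL), with lysates captured overnight at 4 °C and signal by HRP/TMB at 450 nm (570 nm reference). Lysates came from HT-1080 cells incubated 40–48 h with test compounds in 0.5% DMSO.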

| SMILES | EC50 (Bmi-1 protein) [nM] | melting point [°C] |
| --- | --- | --- |
| Cc1nn(CCO)c(C)c1-c1cncc(Nc2ccc(C(F)(F)F)cc2)n1 [compound 335, 2-[3,5-dimethyl-4-(6-{[4-(trifluoromethyl)phenyl]amino}pyrazin-2-yl)-1H-pyrazol-1-yl]ethanol] | 1 to 10 | 172 to 174 |
| [O-][n+]1cc(Nc2ccc(C(F)(F)F)cc2)nc(-c2c(C3CC3)nn3ccc(F)cc23)c1 [compound 536, 6-(2-cyclopropyl-5-fluoropyrazolo[1,5-a]pyridin-3-yl)-N-[4-(trifluoromethyl)phenyl]pyrazin-2-amine 4-oxide] | 10 to 100 | 183 to 186 |
| Cc1nc2ccc(F)cn2c1-c1cncc(Nc2ccccc2F)n1 [compound 598, 6-(6-fluoro-2-methylimidazo[1,2-a]pyridin-3-yl)-N-(2-fluorophenyl)pyrazin-2-amine] | 100 to 3000 | 218 to 220 |
| Nc1cc(Nc2ccc(OC(F)F)c(F)c2)nc(-c2c(C3CC3)nc3ccc(F)cn23)c1 [compound 366, 6-(2-cyclopropyl-6-fluoroimidazo[1,2-a]pyridin-3-yl)-N^2-[4-(difluoromethoxy)-3-fluorophenyl]pyridine-2,4-diamine] | 100 to 3000 | 169 to 170 |
| CCc1nc2ccc(F)cc2n1-c1cncc(Nc2cccc(OC)c2)n1 [compound 624, 6-(2-ethyl-6-fluoro-1H-benzimidazol-1-yl)-N-(3-methoxyphenyl)pyrazin-2-amine] | 10 to 100 | 179 to 181 |
| Cc1nc2ccc(F)cc2n1-c1cncc(Nc2ccc(OC(F)F)cc2)n1 [compound 229, N-[4-(difluoromethoxy)phenyl]-6-(6-fluoro-2-methyl-1H-benzimidazol-1-yl)pyrazin-2-amine] | 1 to 10 | 200 to 202 |
| N#Cc1cc(Nc2ccc(C(F)(F)F)cc2)nc(-c2c(C3CC3)nc3ccc(F)cn23)c1 [compound 346, 2-(2-cyclopropyl-6-fluoroimidazo[1,2-a]pyridin-3-yl)-6-{[4-(trifluoromethyl)phenyl]amino}pyridine-4-carbonitrile] | 10 to 100 | 245 to 247 |
| Fc1cc(F)c2nc(C3CC3)n(-c3cncc(Nc4ccc(OC(F)(F)F)cc4)n3)c2c1 [compound 463, 6-(2-cyclopropyl-4,6-difluoro-1H-benzimidazol-1-yl)-N-[4-(trifluoromethoxy)phenyl]pyrazin-2-amine] | 100 to 3000 | 218 to 220 |
| Cc1nc2ccc(F)cn2c1-c1cncc(Nc2ccc(Cl)cc2)n1 [compound 593, N-(4-chlorophenyl)-6-(6-fluoro-2-methylimidazo[1,2-a]pyridin-3-yl)pyrazin-2-amine] | 1 to 10 | 215 to 218 |
| COc1ccc(Nc2cncc(-n3c(C)nc4ccc(F)cc43)n2)cc1 [compound 552, 6-(6-fluoro-2-methyl-1H-benzimidazol-1-yl)-N-(4-methoxyphenyl)pyrazin-2-amine] | < 1 | 184 to 186 |
| Cc1nc(Nc2cccc(-c3c(C(F)(F)F)nc4ccccn34)n2)sc1C [compound 149, N-(4,5-dimethyl-1,3-thiazol-2-yl)-6-[2-(trifluoromethyl)imidazo[1,2-a]pyridin-3-yl]pyridin-2-amine] | 100 to 3000 | 227 to 228 |
| CCc1nc2ccc(F)cc2n1-c1cncc(Nc2ccc(Cl)cc2)n1 [compound 623, N-(4-chlorophenyl)-6-(2-ethyl-6-fluoro-1H-benzimidazol-1-yl)pyrazin-2-amine] | 1 to 10 | 252 to 255 |
| Cc1csc(Nc2cccc(-c3c(C(F)(F)F)nc4ccccn34)n2)n1 [compound 148, N-(4-methyl-1,3-thiazol-2-yl)-6-[2-(trifluoromethyl)imidazo[1,2-a]pyridin-3-yl]pyridin-2-amine] | 10 to 100 | 259 to 261 |
| CCc1nn2ccc(F)cc2c1-c1cncc(Nc2ccc(C(F)(F)F)cc2)n1 [compound 551, 6-(2-ethyl-5-fluoropyrazolo[1,5-a]pyridin-3-yl)-N-[4-(trifluoromethyl)phenyl]pyrazin-2-amine] | 100 to 3000 | 129 to 131 |
| Cc1nc2ccc(F)cc2n1-c1cncc(Nc2ccc(OC(F)F)c(F)c2)n1 [compound 320, N-[4-(difluoromethoxy)-3-fluorophenyl]-6-(6-fluoro-2-methyl-1H-benzimidazol-1-yl)pyrazin-2-amine] | 10 to 100 | 230 to 231 |
| Cc1nc2c(F)cc(F)cn2c1-c1cc(C#N)cc(Nc2ccc(OC(F)(F)F)cc2)n1 [compound 443, 2-(6,8-difluoro-2-methylimidazo[1,2-a]pyridin-3-yl)-6-{[4-(trifluoromethoxy)phenyl]amino}pyridine-4-carbonitrile] | 10 to 100 | 213 to 216 |

| SMILES | EC50 (Bmi-1 protein) [nM] | melting point [°C] |
| --- | --- | --- |
| NS(=O)(=O)Nc1cc(Nc2ccc(C(F)(F)F)cc2)nc(-c2c(C3CC3)nc3ccc(F)cn23)c1 [compound 368, N-[2-(2-cyclopropyl-6-fluoroimidazo[1,2-a]pyridin-3-yl)-6-{[4-(trifluoromethyl)phenyl]amino}pyridin-4-yl]sulfuric diamide] | 100 to 3000 | 158 to 160 |
| Cc1cn2c(-c3cncc(Nc4ccc(C(F)(F)F)cc4)n3)c(C)nc2c(C)n1 [compound 488, N-[4-(trifluoromethyl)phenyl]-6-(2,6,8-trimethylimidazo-[1,2-a]pyrazin-3-yl)pyrazin2-amine] | 10 to 100 | 102 to 105 |
| Fc1ccc2nc(C(F)F)c(-c3cncc(Nc4ccc(OC(F)F)nc4)n3)n2c1 [compound 479, N-[6-(difluoromethoxy)pyridin-3-yl]-6-[2-(difluoromethyl)-6-fluoroimidazo[1,2-a]pyridin-3-yl]pyrazin-2-amine] | 1 to 10 | 225 to 227 |
| Fc1ccc2nc(C(F)F)c(-c3cncc(Nc4ccc(OC(F)F)cc4)n3)n2c1 [compound 473, N-[4-(difluoromethoxy)phenyl]-6-[2-(difluoromethyl)-6-fluoroimidazo[1,2-a]pyridin-3-yl]pyrazin-2-amine] | < 1 | 167 to 169 |
| Fc1ccc2nc(C3CC3)n(-c3cncc(Nc4ccc(C(F)(F)F)cc4)n3)c2c1 [compound 362, 6-(2-cyclopropyl-6-fluoro-1H-benzimidazol-1-yl)-N-[4-(trifluoromethyl)phenyl]pyrazin-2-amine] | 1 to 10 | 263 to 265 |
| Cc1nc2c(F)cc(F)cn2c1-c1cc(C#N)cc(Nc2ccc(C(F)(F)F)cc2)n1 [compound 441, 2-(6,8-difluoro-2-methylimidazo[1,2-a]pyridin-3-yl)-6-{[4-(trifluoromethyl)phenyl]amino}pyridine-4-carbonitrile] | 1 to 10 | 243 to 245 |
| Cc1nn(C)c(C)c1-c1cc(C#N)cc(Nc2ccc(OC(F)(F)F)cc2)n1 [compound 265, 2-{[4-(trifluoromethoxy)phenyl]amino}-6-(1,3,5-trimethyl-1H-pyrazol-4-yl)pyridine-4-carbonitrile] | 10 to 100 | 135 to 136 |
| Cc1nc2ccc(F)cn2c1-c1cc(C#N)cc(Nc2ccc(C(F)(F)F)cc2)n1 [compound 247, 2-(6-fluoro-2-methylimidazo[1,2-a]pyridin-3-yl)-6-{[4-(trifluoromethyl)phenyl]amino}pyridine-4-carbonitrile] | 1 to 10 | 241 to 243 |
| Cc1nc2cc(F)ccc2n1-c1cncc(Nc2ccc(OC(F)(F)F)cc2)n1 [compound 206, 6-(5-fluoro-2-methyl-1H-benzimidazol-1-yl)-N-[4-(trifluoromethoxy)phenyl]pyrazin-2-amine] | 100 to 3000 | 248 to 250 |
| Cc1csc(Nc2cncc(-c3c(C(F)(F)F)nc4ccccn34)n2)n1 [compound 96, N-(4-methyl-1,3-thiazol-2-yl)-6-[2-(trifluoromethyl)imidazo[1,2-a]pyridin-3-yl]pyrazin-2-amine] | 100 to 3000 | 317 to 319 |
| CCS(=O)(=O)n1nc(C)c(-c2cncc(Nc3ccc(C(F)(F)F)cc3)n2)c1C [compound 176, 6-[1-(ethylsulfonyl)-3,5-dimethyl-1H-pyrazol-4-yl]-N-[4-(trifluoromethyl)phenyl]pyrazin-2-amine] | 10 to 100 | 70 to 71 |
| CCc1nc2ccc(F)cc2n1-c1cncc(Nc2cccc(F)c2)n1 [compound 626, 6-(2-ethyl-6-fluoro-1H-benzimidazol-1-yl)-N-(3-fluorophenyl)pyrazin-2-amine] | 100 to 3000 | 228 to 230 |
| CCc1nc2ccc(F)cc2n1-c1cncc(Nc2ccc(OC(F)F)cc2)n1 [compound 260, N-[4-(difluoromethoxy)phenyl]-6-(2-ethyl-6-fluoro-1H-benzimidazol-1-yl)pyrazin-2-amine] | 1 to 10 | 205 to 207 |
| Nc1cc(Nc2ccc(OC(F)(F)F)cc2)nc(-c2c(C3CC3)nc3ccc(F)cn23)c1 [compound 367, 6-(2-cyclopropyl-6-fluoroimidazo[1,2-a]pyridin-3-yl)-N^2-[4-(trifluoromethoxy)phenyl]pyridine-2,4-diamine] | 10 to 100 | 166 to 168 |
| N#Cc1cc(Nc2ccc(C(F)(F)F)c(F)c2)nc(-c2c(C3CC3)nc3ccc(F)cn23)c1 [compound 347, 2-(2-cyclopropyl-6-fluoroimidazo[1,2-a]pyridin-3-yl)-6-{[3-fluoro-4-(trifluoromethyl)phenyl]amino}pyridine-4-carbonitrile] | 10 to 100 | 256 to 258 |
| N#Cc1cc(Nc2ccc(C(F)(F)F)nc2)nc(-c2c(C(F)F)nc3ccc(F)cn23)c1 [compound 469, 2-[2-(difluoromethyl)-6-fluoroimidazo[1,2-a]pyridin-3-yl]-6-{[6-(trifluoromethyl)pyridin-3-yl]amino}pyridine-4-carbonitrile] | 10 to 100 | 285 to 288 |
